Reference: ChEMBL document CHEMBL4507274 (2021)

What was measured:
[1] = test system: KATO III stomach cancer cell line; assay: Stomach KATO III cell line MDS Pharma Services Proliferation Assay; type: functional, cell-based, Homo sapiens
[2] = molecular target: Glycogen synthase kinase-3 alpha (Homo sapiens) (UniProt P49840); assay: GSK3alpha (h) Upstate kinase activity assay; conditions: Compound concentration 10.0 uM
[3] = molecular target: Calcium/calmodulin-dependent protein kinase type II subunit gamma (Rattus norvegicus) (UniProt P11730); assay: CaMKII (r) Upstate kinase activity assay; conditions: Compound concentration 10.0 uM
[4] = molecular target: T1, Aurora kinase A (Homo sapiens) (UniProt O14965); assay: Aurora A (h) Upstate kinase activity assay; conditions: Compound concentration 10.0 uM
T1 sequence (whole entry): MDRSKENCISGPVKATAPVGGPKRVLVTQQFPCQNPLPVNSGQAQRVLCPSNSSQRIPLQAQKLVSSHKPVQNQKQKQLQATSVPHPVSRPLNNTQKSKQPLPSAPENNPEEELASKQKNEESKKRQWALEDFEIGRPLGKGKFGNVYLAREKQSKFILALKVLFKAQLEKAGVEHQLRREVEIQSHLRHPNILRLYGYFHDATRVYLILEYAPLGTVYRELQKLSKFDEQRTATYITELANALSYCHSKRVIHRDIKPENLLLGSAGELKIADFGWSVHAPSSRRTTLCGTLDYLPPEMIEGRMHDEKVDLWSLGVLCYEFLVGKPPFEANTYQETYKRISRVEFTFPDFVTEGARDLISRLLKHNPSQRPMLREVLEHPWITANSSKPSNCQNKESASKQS

[5] = molecular target: Tyrosine-protein kinase Lck (Homo sapiens) (UniProt P06239); assay: Lck (h) Upstate kinase activity assay; conditions: Compound concentration 10.0 uM
[6] = molecular target: Serine/threonine-protein kinase Chk2 (Homo sapiens) (UniProt O96017); assay: CHK2 (h) Upstate kinase activity assay; conditions: Compound concentration 10.0 uM
[7] = molecular target: cAMP-dependent protein kinase catalytic subunit alpha (Homo sapiens) (UniProt P17612); assay: PKA (h) Upstate kinase activity assay; conditions: Compound concentration 10.0 uM
[8] = molecular target: Proto-oncogene tyrosine-protein kinase receptor Ret (Homo sapiens) (UniProt P07949); assay: Ret (h) Upstate kinase activity assay; conditions: Compound concentration 10.0 uM
PC-3 = assay: Prostate PC-3 cell line MDS Pharma Services Proliferation Assay; type: functional, cell-based, Homo sapiens
[9] = molecular target: Serine/threonine-protein kinase PAK 2 (Homo sapiens) (UniProt Q13177); assay: PAK2 (h) Upstate kinase activity assay; conditions: Compound concentration 10.0 uM
[10] = molecular target: Mitogen-activated protein kinase 1 (Homo sapiens) (UniProt P28482); assay: MAPK2 (h) Upstate kinase activity assay; conditions: Compound concentration 10.0 uM
[11] = molecular target: T2, Serine/threonine-protein kinase Chk1 (Homo sapiens) (UniProt O14757); assay: CHK1 (h) Upstate kinase activity assay; conditions: Compound concentration 10.0 uM
T2 sequence (whole entry): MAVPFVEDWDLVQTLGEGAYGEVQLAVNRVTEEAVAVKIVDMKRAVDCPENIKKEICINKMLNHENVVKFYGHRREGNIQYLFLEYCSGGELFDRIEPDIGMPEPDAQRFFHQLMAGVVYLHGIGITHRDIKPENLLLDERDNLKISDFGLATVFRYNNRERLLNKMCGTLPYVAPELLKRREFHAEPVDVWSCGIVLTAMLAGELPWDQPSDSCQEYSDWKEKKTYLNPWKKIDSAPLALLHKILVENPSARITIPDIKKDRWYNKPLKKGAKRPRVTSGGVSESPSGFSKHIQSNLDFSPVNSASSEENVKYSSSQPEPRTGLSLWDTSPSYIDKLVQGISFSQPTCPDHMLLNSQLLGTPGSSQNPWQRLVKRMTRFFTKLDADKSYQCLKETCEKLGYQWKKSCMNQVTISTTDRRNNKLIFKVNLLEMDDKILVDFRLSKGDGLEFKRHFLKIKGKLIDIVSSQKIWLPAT

Sequence of Mitogen-activated protein kinase 1 (Homo sapiens) (P28482 whole entry): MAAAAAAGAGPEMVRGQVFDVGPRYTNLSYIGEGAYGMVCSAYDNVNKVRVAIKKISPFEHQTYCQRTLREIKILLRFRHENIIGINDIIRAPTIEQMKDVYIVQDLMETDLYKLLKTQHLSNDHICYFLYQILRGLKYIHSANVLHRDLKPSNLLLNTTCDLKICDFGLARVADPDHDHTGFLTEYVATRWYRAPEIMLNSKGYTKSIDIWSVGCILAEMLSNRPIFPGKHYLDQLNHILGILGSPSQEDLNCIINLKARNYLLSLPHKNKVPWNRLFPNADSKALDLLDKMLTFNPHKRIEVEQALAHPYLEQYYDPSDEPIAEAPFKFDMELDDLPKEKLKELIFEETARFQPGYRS
Sequence of Tyrosine-protein kinase Lck (Homo sapiens) (P06239 2-509 limits assumed): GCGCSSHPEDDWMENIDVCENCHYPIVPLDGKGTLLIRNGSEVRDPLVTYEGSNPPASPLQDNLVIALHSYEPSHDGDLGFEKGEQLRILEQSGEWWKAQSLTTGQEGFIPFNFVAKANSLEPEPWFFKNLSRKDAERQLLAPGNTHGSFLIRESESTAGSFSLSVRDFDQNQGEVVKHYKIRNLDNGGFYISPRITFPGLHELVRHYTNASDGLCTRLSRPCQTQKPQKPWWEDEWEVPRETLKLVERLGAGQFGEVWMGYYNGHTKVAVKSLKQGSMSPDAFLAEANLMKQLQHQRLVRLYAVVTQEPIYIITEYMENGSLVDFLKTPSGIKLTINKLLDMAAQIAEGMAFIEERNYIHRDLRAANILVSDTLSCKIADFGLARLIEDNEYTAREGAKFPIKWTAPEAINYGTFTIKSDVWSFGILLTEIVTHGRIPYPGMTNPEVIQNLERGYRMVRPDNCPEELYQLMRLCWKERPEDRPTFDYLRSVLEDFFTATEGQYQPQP
Sequence of Serine/threonine-protein kinase PAK 2 (Homo sapiens) (Q13177 whole entry): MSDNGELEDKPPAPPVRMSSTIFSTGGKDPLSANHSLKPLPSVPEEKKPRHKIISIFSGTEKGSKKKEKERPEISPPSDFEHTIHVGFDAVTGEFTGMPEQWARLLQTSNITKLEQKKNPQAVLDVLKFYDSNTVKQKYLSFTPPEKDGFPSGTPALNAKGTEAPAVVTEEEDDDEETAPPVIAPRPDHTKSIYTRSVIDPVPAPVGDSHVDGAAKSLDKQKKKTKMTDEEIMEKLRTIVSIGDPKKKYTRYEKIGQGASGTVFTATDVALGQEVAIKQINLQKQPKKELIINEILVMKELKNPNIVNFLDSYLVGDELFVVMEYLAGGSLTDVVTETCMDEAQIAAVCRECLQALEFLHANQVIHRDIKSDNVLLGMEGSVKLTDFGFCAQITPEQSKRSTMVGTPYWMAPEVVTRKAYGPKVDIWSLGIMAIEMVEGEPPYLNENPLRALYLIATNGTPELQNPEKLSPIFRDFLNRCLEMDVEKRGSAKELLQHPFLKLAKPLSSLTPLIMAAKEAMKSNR
Sequence of Calcium/calmodulin-dependent protein kinase type II subunit gamma (Rattus norvegicus) (P11730 whole entry): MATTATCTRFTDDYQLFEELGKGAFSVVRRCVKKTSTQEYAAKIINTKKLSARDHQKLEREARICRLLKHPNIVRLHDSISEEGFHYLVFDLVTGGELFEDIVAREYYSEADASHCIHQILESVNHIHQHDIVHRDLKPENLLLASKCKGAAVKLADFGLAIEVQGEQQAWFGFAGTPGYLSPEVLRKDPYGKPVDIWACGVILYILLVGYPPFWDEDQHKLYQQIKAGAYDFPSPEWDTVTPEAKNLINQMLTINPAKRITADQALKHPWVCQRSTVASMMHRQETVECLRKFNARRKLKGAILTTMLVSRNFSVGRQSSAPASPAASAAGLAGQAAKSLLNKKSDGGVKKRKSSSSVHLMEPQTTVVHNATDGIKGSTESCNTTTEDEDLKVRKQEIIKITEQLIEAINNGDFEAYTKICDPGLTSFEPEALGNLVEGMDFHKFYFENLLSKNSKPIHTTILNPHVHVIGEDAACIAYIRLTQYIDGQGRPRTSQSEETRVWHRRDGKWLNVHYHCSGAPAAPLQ
Sequence of Proto-oncogene tyrosine-protein kinase receptor Ret (Homo sapiens) (P07949 whole entry): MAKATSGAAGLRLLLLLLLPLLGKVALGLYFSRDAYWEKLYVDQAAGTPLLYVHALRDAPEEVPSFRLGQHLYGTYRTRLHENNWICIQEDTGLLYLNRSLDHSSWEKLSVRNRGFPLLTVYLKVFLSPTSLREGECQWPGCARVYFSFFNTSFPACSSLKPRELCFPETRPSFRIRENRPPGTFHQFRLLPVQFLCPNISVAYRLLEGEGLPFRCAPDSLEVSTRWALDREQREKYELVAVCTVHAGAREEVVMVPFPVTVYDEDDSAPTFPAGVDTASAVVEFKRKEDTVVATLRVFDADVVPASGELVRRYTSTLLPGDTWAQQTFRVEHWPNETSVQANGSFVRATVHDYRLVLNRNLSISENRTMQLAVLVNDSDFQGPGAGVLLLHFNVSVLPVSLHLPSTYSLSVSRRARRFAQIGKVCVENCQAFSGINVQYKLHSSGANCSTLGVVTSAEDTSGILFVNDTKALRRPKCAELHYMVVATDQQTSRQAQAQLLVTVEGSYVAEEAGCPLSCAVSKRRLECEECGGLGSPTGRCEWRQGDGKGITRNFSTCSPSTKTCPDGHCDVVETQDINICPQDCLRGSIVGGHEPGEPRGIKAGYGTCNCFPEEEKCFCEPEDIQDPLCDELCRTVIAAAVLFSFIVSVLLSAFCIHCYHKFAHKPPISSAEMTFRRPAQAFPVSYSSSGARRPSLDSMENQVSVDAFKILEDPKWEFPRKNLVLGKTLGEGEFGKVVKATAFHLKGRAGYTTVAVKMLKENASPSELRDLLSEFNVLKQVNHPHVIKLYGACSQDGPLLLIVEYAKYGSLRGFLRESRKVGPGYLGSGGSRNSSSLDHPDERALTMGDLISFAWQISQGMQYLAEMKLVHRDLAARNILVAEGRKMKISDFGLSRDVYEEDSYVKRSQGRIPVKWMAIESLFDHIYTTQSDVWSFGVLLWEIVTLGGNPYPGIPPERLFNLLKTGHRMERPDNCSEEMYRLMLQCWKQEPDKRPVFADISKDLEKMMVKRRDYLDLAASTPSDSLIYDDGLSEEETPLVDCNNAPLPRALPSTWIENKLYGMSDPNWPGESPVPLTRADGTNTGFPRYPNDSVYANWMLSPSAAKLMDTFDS
Sequence of Serine/threonine-protein kinase Chk2 (Homo sapiens) (O96017 whole entry): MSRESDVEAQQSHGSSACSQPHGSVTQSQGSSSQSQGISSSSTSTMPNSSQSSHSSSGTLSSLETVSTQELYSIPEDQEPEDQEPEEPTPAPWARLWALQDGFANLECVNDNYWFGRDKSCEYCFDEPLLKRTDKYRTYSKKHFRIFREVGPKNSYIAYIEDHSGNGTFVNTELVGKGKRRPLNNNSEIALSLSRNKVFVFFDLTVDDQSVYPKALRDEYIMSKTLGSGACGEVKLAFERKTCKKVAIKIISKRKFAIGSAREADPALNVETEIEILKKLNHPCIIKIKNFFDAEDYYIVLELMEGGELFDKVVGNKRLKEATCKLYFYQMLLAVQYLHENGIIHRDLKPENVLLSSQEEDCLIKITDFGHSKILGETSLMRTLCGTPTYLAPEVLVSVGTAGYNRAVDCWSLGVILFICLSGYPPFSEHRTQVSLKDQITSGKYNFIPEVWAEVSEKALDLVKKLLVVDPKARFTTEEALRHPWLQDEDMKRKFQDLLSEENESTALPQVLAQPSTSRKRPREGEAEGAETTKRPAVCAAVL
Sequence of Glycogen synthase kinase-3 alpha (Homo sapiens) (P49840 2-483 limits assumed): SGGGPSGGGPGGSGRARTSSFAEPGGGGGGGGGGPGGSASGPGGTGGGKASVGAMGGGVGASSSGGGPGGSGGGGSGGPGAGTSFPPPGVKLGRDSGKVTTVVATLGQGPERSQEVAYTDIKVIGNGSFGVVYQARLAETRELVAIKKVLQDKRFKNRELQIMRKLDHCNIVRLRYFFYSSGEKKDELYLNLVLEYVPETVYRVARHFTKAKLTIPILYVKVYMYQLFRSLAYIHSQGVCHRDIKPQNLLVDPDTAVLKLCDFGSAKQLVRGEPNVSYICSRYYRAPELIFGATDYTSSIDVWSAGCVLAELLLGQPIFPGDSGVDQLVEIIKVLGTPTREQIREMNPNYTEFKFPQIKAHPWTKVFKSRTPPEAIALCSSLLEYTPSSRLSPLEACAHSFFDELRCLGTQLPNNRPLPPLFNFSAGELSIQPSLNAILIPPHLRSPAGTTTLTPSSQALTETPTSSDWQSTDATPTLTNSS

Compound Cc1c[nH]c2nccc(Oc3c(F)cc(Nc4cc(Cl)nc(N)n4)cc3F)c12 [BAY-549] has an IC50 ([1]; Homo sapiens, KATO III) of 3.2 µM, a TGI ([1]; Homo sapiens, KATO III) of over 100 µM and a CC50 ([1]; Homo sapiens, KATO III, read-out: LC50 (the source's name)) of over 100 µM. The “Mean % growth (n = 2) for 0.01 µM probe concentration” value ([1]; ± SEM 7 % growth) was 98%, the “Mean % growth (n = 2) for 10.0 µM probe concentration” value ([1]; ± SEM 7 % growth) was 27% and the “Mean % growth (n = 2) for 100.0 µM probe concentration” value ([1]; ± SEM 7 % growth) was 19%. The “Mean % growth (n = 2) for 1.0 µM probe concentration” value ([1]; ± SEM 8 % growth) was 66%, the “Mean % growth (n = 2) for 0.1 µM probe concentration” value ([1]; ± SEM 11 % growth) was 99% and the inhibition [2] was 13%. It also gave an inhibition [3] of 7%, an inhibition [4] of 77% and an inhibition [5] of 50%. For the same compound, the inhibition [6] was 64%, the inhibition [7] was 95% and the inhibition [8] was 52%. For the same compound, the IC50 (PC-3; Homo sapiens, PC-3) was 9.4 µM, the TGI (PC-3; Homo sapiens, PC-3) was over 100 µM and the CC50 (PC-3; Homo sapiens, PC-3, read-out: LC50 (the source's name)) was over 100 µM. For the same compound, the “Mean % growth (n = 2) for 10.0 µM probe concentration” value (PC-3; ± SEM 1 % growth) was 48%, the “Mean % growth (n = 2) for 0.01 µM probe concentration” value (PC-3; ± SEM 2 % growth) was 97% and the “Mean % growth (n = 2) for 1.0 µM probe concentration” value (PC-3; ± SEM 3 % growth) was 58%. The “Mean % growth (n = 2) for 100.0 µM probe concentration” value (PC-3; ± SEM 3 % growth) was 29%, the “Mean % growth (n = 2) for 0.1 µM probe concentration” value (PC-3; ± SEM 5 % growth) was 102% and the inhibition [9] was 2%. For the same compound, the inhibition [10] was 17% and the inhibition [11] was 9%.
